Results reported in US8802597B2, “Herbicidal pyrimidines” (E I du Pont de Nemours and Company, priority 2003, dated 2014).

Columns and labels:
Type in all cases: in vivo
[1] = system: Surinam grass (Brachiaria decumbens); assay: Test B pre/postemergence
Procedure, shortened: (§1)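 Greenhouse whole-plant test; surfactant-containing non-phytotoxic solvent formulation; pre- and postemergence applications made simultaneously; post plants 2–18 cm, 1- to 4-leaf; visual scoring at 13–15 days on 0–100 scale relative to controls.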

[2] = system: barnyardgrass (Echinochloa crus-galli); assay: Test B pre/postemergence
Procedure, shortened: as §1

[3] = system: cocklebur (Xanthium strumarium); assay: Test B pre/postemergence
Procedure, shortened: as §1

corn (Zea mays) = assay: Test B pre/postemergence
Procedure, shortened: as §1

[4] = system: crabgrass (Digitaria sanguinalis); assay: Test B pre/postemergence
Procedure, shortened: as §1

[5] = system: giant foxtail (Setaria faberii); assay: Test B pre/postemergence; conditions: Preemergence, scale 0 to 100 (0 no effect, 100 complete control)
Procedure, shortened: as §1

[6] = system: lambsquarters (Chenopodium album); assay: Test B pre/postemergence; conditions: for Lambsquarters plant response rating: scale 0 to 100 (0 no effect, 100 complete control)
Procedure, shortened: as §1

[7] = system: morningglory (Ipomoea coccinea); assay: Test B pre/postemergence
Procedure, shortened: as §1

[8] = system: pigweed (Amaranthus retroflexus); assay: Test B pre/postemergence
Procedure, shortened: as §1

[9] = system: velvetleaf (Abutilon theophrasti); assay: Test B pre/postemergence
Procedure, shortened: as §1

[10] = system: wheat (Triticum aestivum); assay: Test B pre/postemergence
Procedure, shortened: as §1

[11] = system: blackgrass (Alopecurus myosuroides); assay: Test B postemergence
Procedure, shortened: as §1

wild oat (Avena fatua) = assay: Test B postemergence
Procedure, shortened: as §1

[12] = system: barnyardgrass (Echinochloa crus-galli); assay: Test B flooded paddy test; conditions: Flood, 1000 g ai/ha; scale 0 (no effect) to 100 (complete control)
Procedure, shortened: (§2)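 Rice, umbrella sedge, duck salad and barnyardgrass grown to 2-leaf stage under flooded paddy conditions and treated with formulated test chemicals. Kept in greenhouse 13–15 days, then visually rated against untreated controls on a 0–100 scale (0 no effect, 100 complete control).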

[13] = system: duck salad (Heteranthera limosa); assay: Test B flooded paddy test; conditions: Flood, 1000 g ai/ha; scale 0 to 100
Procedure, shortened: as §2

rice (Oryza sativa) = assay: Test B flooded paddy test; conditions: Flood, 1000 g ai/ha; scale 0 to 100
Procedure, shortened: as §2

[14] = system: umbrella sedge (Cyperus difformis); assay: Test B flooded paddy test; conditions: Flood, 1000 g ai/ha; scale 0 to 100
Procedure, shortened: as §2

[15] = Postemergence, 500 g ai/ha, scale 0 to 100
[16] = Preemergence, 125 g ai/ha, scale 0 to 100 (0 no effect, 100 complete control)
[17] = Preemergence, 500 g ai/ha, scale 0 to 100 (0 no effect, 100 complete control)
[18] = Postemergence, 125 g ai/ha, scale 0 to 100 (0 no effect, 100 complete control)
[19] = 125 g ai/ha, scale 0 to 100 (0 no effect, 100 complete control)

COC(=O)c1nc(-c2ccc(C(F)(F)F)cc2)nc(N)c1Cl [Compound 44]
80: Cocklebur plant response rating [3, 17] | Plant response rating, Crabgrass [4, 15] | Crabgrass plant response rating [4, 17] | Morningglory plant response rating [7, 18] | Pigweed plant response rating [8, 18] | Pigweed plant response rating [8, 17] | Velvetleaf plant response rating [9, 18] | Velvetleaf plant response rating [9, 17] | Plant response rating, Sedge, Umbrella [14]
10: Barnyardgrass plant response rating [2, 17] | Plant response rating, Cocklebur [3, 16] | Plant response rating, Morningglory [7, 16]
60: Surinam Grass plant response rating [1, 17] | Lambsquarters plant response rating ([6]; Preemergence, 500 g ai/ha) | Plant response rating, Wheat [10, 17]
100: Plant response rating, Cocklebur [3, 15] | Plant response rating, Morningglory [7, 15]
70: Plant response rating, Corn (corn (Zea mays); [15]) | Crabgrass plant response rating [4, 18] | Plant response rating, Pigweed [8, 16]
20: Plant response rating, Foxtail, Giant ([5]; 125 g ai/ha)
0: Plant response rating, Barnyardgrass [2, 16] | Plant response rating, Corn (corn (Zea mays); [16]) | Corn plant response rating (corn (Zea mays); [17]) | Wheat plant response rating [10, 18] | Oat, Wild plant response rating (wild oat (Avena fatua); [19]) | Plant response rating, Oat, Wild (wild oat (Avena fatua); 500 g ai/ha, scale 0 to 100) | Plant response rating, Barnyardgrass [12] | Plant response rating, Rice (rice (Oryza sativa))
50: Plant response rating, Surinam Grass [1, 15] | Plant response rating, Barnyardgrass [2, 15]
40: Plant response rating, Surinam Grass [1, 16] | Barnyardgrass plant response rating [2, 18] | Plant response rating, Crabgrass [4, 16] | Foxtail, Giant plant response rating ([5]; 500 g ai/ha) | Morningglory plant response rating [7, 17] | Plant response rating, Blackgrass ([11]; 500 g ai/ha, scale 0 to 100)
90: Cocklebur plant response rating [3, 18] | Lambsquarters plant response rating ([6]; Postemergence, 125 g ai/ha) | Plant response rating, Lambsquarters [6, 15] | Plant response rating, Pigweed [8, 15] | Plant response rating, Velvetleaf [9, 15] | Plant response rating, Ducksalad [13]
30: Corn plant response rating (corn (Zea mays); [18]) | Plant response rating, Velvetleaf [9, 16] | Plant response rating, Wheat [10, 15] | Plant response rating, Wheat [10, 16] | Blackgrass plant response rating [11, 19]
